Data taken from patent publication US10004828B2, “Self-assembled Fmoc-ff hydrogels” (Romat at Tel-Aviv University Ltd., priority 2005, dated 2018).
Where two headings read alike, the source gives them in different places. Where a SMILES comes first, the peptide text is derived from it. The star is where a group is joined. Fmoc = O=C(OCC1c2ccccc2-c2ccccc21)*

Key:
[1] = for G' (storage modulus): at 1 Hz
Protocol: Rheological measurements were performed on AR 2000 controlled stress rheometer (TA Instruments Ltd, Great Britain) operated in cone-plate mode (cone angles 1 and 4 with diameters of 60 and 40 mm, respectively). Small-amplitude oscillatory shear experiments (0.1-10 Hz) were performed within the linear viscoelastic limit. Frequency scans were performed at the lowest stress possible to prevent damage to the sample. The linearity of response was monitored continuously to ascertain linear viscoelasticity.
To study the biomechanical characteristics of the novel hydrogel, rheology measurements were performed.

[2] = HFIP stock, 5 mg/ml
Protocol: Determination of water percentage in the gel was done by washing a freshly formed hydrogel with water five times, each time for 15 minutes, followed by weighing the gel, lyophilizing it and weighing the remaining peptide aggregate.

in vitro = details: CHO cells seeded on the peptide hydrogel
Protocol: (§1) For cell growth in vitro experiments Chinese Hamster Ovary (CHO) cells were grown in Dulbecco's Modified Eagle Medium (DMEM) supplemented with 10% Fetal Calf Serum, 100 U/ml penicillin, 100 U/ml streptomycin and 2 mmol/liter L-glutamine (all from Beit Haemek, Israel). Cells were maintained at 37° C. in a humidified atmosphere containing 5% CO2. Sub-confluent cells were harvested by trypsinization, counted and diluted in the cells media to 1×10^5 cells/ml. The gel was washed three times with 0.5 ml water for 30 minutes at a time and was then left overnight in 0.5 ml DMEM. The DMEM was thereafter removed and 500 μl of CHO cells (5×10^4 cells) were added over the hydrogel. After a 24 hour incubation period at 37° C. the viability of the cells was determined using a MTT (3-(4,5-dimethylthiazolyl-2)-2,5-diphenyltetrazolium bromide) assay [Nowak et al., Nature 417, 424 (2002)].
(§2) In order to exploit whether the peptide-based hydrogel described herein can serve as a scaffold for tissue engineering applications, its biocompatibility was examined using cellular in vitro experiments. Chinese Hamster Ovary (CHO) cells were suspended above the hydrogel after its formation in a […]. After a one-day incubation period the cells were analyzed for viability.

[3] = tested on: Chinese Hamster Ovary (CHO) cells; test: in vitro
Protocol: as §1, §2

[4] = cited from earlier work
[5] = CHO cells on hydrogel from HFIP stock, one-day incubation

For `O=C(N[C@@H](Cc1ccccc1)C(=O)N[C@@H](Cc1ccccc1)C(=O)O)OCC1c2ccccc2-c2ccccc21` [Fmoc-Phe-Phe, Fmoc-diphenylalanine] (Fmoc-Phe-Phe-OH), the “storage modulus G' excess over loss modulus G''” value ([1]; HFIP stock, final concentration 5 mg/ml (FIG. 3a)) was “about one order of magnitude”, the “G' (storage modulus)” value ([1]; peptide concentration 5 mg/ml, solvent not stated) was “about 2×10^4 Pa” and the “G' (storage modulus)” value ([1]; peptide final concentration 1 mg/ml, stock solution solvent DMSO) was 1,000 Pa. For the same molecule, the “G' (storage modulus)” value ([1]; peptide final concentration 2 mg/ml, acetone stock solution) was “about 2×10^3 Pa”, the “G' (storage modulus)” value ([1]; peptide final concentration 5 mg/ml, stock solution solvent HFIP) was 10,000 Pa and the “G' (storage modulus)” value ([1]; peptide final concentration 5 mg/ml, stock solution solvent HFIP, listed as Fmoc-diphenylalanine) was “about 10^4 Pa”. For the same molecule, the “G' (storage modulus)” value ([1]; peptide final concentration 5 mg/ml, stock solution solvent acetone) was 10,000 Pa, the “G' (storage modulus)” value ([1]; peptide final concentration 10 mg/ml, acetone stock solution (FIG. 3c)) was “about 2×10^4 Pa” and the “G' relative to that reported for other self-assembled peptide hydrogels” value ([1]; versus hydrogels formed without chemical cross linking) was 200 fold. For the same molecule, the hydrogel water content [2] was “greater than 99%”, the viability at 24 h (in vitro) was over 80% and the cell morphology [3, 5] was “normal cell morphology”. For the same molecule, the rate of proliferation [3, 5] was “normal rate of proliferation” and the “cell growth on hydrogel compared with poly lysine” value ([3]; CHO cells, hydrogel from DMSO stock, final DMSO concentration 1%) was “effective matrix for cell growth”.
In the case of “[COCH3]-RADARADARADARADA-[CONH2] [RADA16 (Puramatrix)]”, the “G' (storage modulus)” value ([4]; 5 mg/ml, Tris HCl buffer, at 1 Hz, reported value) is listed as 50 Pa, the “G' (storage modulus)” value ([4]; 5 mg/ml, Tris HCl buffer, at 1 Hz, reported value, listed as PuraMatrix gel) is listed as “about 50 Pa” and the “G' (storage modulus)” value ([4]; at 1 Hz frequency, concentration not given) is listed as “about 50 Pa”.
